Source: US10722437B2, “Cosmetic agents with “improved protection against body odor”” (Henkel AG & Co. KGaA, priority 2016, dated 2020)

Tested on: body odor
Assay: Neutralization of body odor: specimen on left armpit vs anti-transpirant base suspension on right armpit, worn T-shirt rated by trained persons
Format: in vivo, human
Details: statement in words on the body odor test; 0.3 wt. % in anti-transpirant base suspension
Method: The following anti-transpirant base suspension was used to determine the synergistic effect with respect to the neutralization of body odor (values in wt. %):
Each of the following cyclical alcohols of the Formula (I) and/or menthyl compounds of the Formula (II) were added to said composition, wherein the total concentration of alcohol and/or menthyl compound in the suspension is 0.3 wt. % (all values in wt. %, relative to the used anti-transpirant suspension):
Said suspensions, each with a weight ratio of 15:85, were then placed in aerosol cans with a propellant mixture of propane and n-butane (weight ratio 15:85). Specimens No. 1 to 11 were each applied to the left armpit, the anti-transpirant base suspension to the right armpit. 24 hours after application, the body odor on the worn T-shirt on the left armpit (treated with specimens No. 1 to 11) were compared to the body odor of the right armpit (treated with anti-transpirant base suspension) by trained persons. The following rating scale was used: 0=no difference between specimen No. 1 to 11 and anti-transpirant base suspension; +=body odor reduced compared to anti-transpirant base suspension; ++=body odor no longer discernible on the T-shirt.

SMILES	deodorizing effect
CC(=O)O[C@@H]1C[C@H](C)CC[C@H]1C(C)C [menthylacetate]	deodorizing effect
CC(O)C1CCCCC1 (stereo not drawn) [1-cyclohexylethanol]	deodorizing effect
CC(CO)CCCC1CCCCC1 (stereo not drawn) [2-methyl-5-cyclohexylpentanol]	a deodorizing effect is achieved
